The values below come from patent US20260125382A1, “COMPOUNDS FOR INHIBITING OR DEGRADING CDK2 AND/OR CDK9 AND MEDICINAL USE THEREOF” (KOREA RESEARCH INSTITUTE OF CHEMICAL TECHNOLOGY, priority 2022, published 2026).

One experiment concerns the target T1, CDK2 (Homo sapiens, UniProt P24941).
T1 construct: endogenous in cells; host or cells: MDA-MB-231
Kind of experiment: CDK protein degradation activity (Western blotting), CDK2. Type of experiment: cell-based. The conditions noted are these: MDA-MB-231 cells, 16 hours, Western blot. The gist of the method: (§1)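 CDK2 and CDK9 protein levels measured by Western blot with densitometry, using tubulin as loading reference. Cells were MDA-MB-231, exposed for 16 h to 100 nM, 1 μM or 10 μM compound or to DMSO.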
(In general: In western blotting, separated proteins are transferred to a membrane and probed.)

A further experiment addresses T2, CDK9 (Homo sapiens, UniProt P50750).
T2 construct: endogenous in cells; host or cells: MDA-MB-231
Kind of experiment: CDK protein degradation activity (Western blotting), CDK9. In kind it is cell-based. Conditions: MDA-MB-231 cells, 16 hours, Western blot. In a few lines:
as §1

T2 sequence (P50750 whole entry): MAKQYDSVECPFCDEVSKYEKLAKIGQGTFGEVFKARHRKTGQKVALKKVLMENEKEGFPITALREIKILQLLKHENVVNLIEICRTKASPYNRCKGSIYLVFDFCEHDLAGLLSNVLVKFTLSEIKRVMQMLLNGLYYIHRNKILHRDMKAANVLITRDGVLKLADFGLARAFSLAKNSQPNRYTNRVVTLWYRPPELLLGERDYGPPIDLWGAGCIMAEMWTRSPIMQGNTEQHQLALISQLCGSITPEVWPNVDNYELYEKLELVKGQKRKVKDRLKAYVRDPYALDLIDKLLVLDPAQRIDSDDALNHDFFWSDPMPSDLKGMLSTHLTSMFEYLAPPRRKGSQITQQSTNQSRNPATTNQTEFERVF

For the molecule `O=C1CCC(N2C(=O)c3ccc(N4CCC(C(=O)N5CC(N6CCN(c7ccc(Nc8ncnc9c8ncn9[C@H]8C[C@@H](NC(=O)Cc9ccccc9)C8)cc7)CC6)C5)CC4)cc3C2=O)C(=O)N1` (stereo partly drawn) [Compound 350, N-((1s,3s)-3-(6-((4-(4-(1-(1-(2-(2,6-dioxopiperidin-3-yl)-1,3-dioxoisoindolin-5-yl)piperidin-4-carbonyl)azetidin-3-yl)piperazin-1-yl)phenyl)amino)-9H-purin-9-yl)cyclobutyl)-2-phenylacetamide], on CDK2, the “Enzyme degradation CDK2 (% remaining) @ 0.1 μM” value is 30/30/30%, the “Enzyme degradation CDK2 (% remaining) @ 1 μM” value was 30/30/30% and the “Enzyme degradation CDK2 (% remaining) @ 10 μM” value was 30/30/30%. Moreover, on CDK9, the “Enzyme degradation CDK9 (% remaining) @ 0.1 μM” value stood at 50%, the “Enzyme degradation CDK9 (% remaining) @ 1 μM” value is recorded as 30% and the “Enzyme degradation CDK9 (% remaining) @ 10 μM” value is reported as 30%.
Regarding `O=C1CC[C@H](n2nnc3ccc(N4CCC(CCCN5CCN(c6ccc(Nc7ncnc8c7ncn8C7CC(NC(=O)Cc8ccccc8)C7)cc6)CC5)CC4)cc3c2=O)C(=O)N1` (stereo partly drawn) [Compound 351, N-((1s,3s)-3-(6-((4-(4-(3-(1-(3-(2,6-dioxopiperidin-3-yl)-4-oxo-3,4-dihydrobenzo[d][1,2,3]triazin-6-yl)piperidin-4-yl)propyl)piperazin-1-yl)phenyl)amino)-9H-purin-9-yl)cyclobutyl)-2-phenylacetamide], on CDK2, the “Enzyme degradation CDK2 (% remaining) @ 0.1 μM” value is 20%, the “Enzyme degradation CDK2 (% remaining) @ 1 μM” value turned out to be 10% and the “Enzyme degradation CDK2 (% remaining) @ 10 μM” value worked out at 10%. In addition, at CDK9, the “Enzyme degradation CDK9 (% remaining) @ 0.1 μM” value is given as 10/10/10%, the “Enzyme degradation CDK9 (% remaining) @ 1 μM” value is on record as 10/10/10% and the “Enzyme degradation CDK9 (% remaining) @ 10 μM” value is given as 10/10/10%.
In the case of `O=C1CC[C@H](N2C(=O)c3ccc(N4CC(C(=O)N5CCC6(CC5)CC(N5CCN(c7ccc(Nc8ncnc9c8ncn9[C@H]8C[C@@H](NC(=O)Cc9ccccc9)C8)cc7)CC5)C6)C4)cc3C2=O)C(=O)N1` [Compound 352, N-((1s,3s)-3-(6-((4-(4-(7-(1-(2-(2,6-dioxopiperidin-3-yl)-1,3-dioxoisoindolin-5-yl)azetidin-3-carbonyl)-7-azaspiro[3.5]nonan-2-yl)piperazin-1-yl)phenyl)amino)-9H-purin-9-yl)cyclobutyl)-2-phenylacetamide], on CDK2, the “Enzyme degradation CDK2 (% remaining) @ 0.1 μM” value is recorded as 90%, the “Enzyme degradation CDK2 (% remaining) @ 1 μM” value was 70% and the “Enzyme degradation CDK2 (% remaining) @ 10 μM” value is on record as 70%. Moreover, on CDK9, the “Enzyme degradation CDK9 (% remaining) @ 0.1 μM” value is recorded as 20/20/20%, the “Enzyme degradation CDK9 (% remaining) @ 1 μM” value was 20/20/20% and the “Enzyme degradation CDK9 (% remaining) @ 10 μM” value is reported as 20/20/20%.
Consider `O=C1CC[C@H](N2C(=O)c3ccc(N4CCC(C(=O)N5CCC6(CC5)CC(N5CCN(c7ccc(Nc8ncnc9c8ncn9C8CC(NC(=O)Cc9ccccc9)C8)cc7)CC5)C6)CC4)cc3C2=O)C(=O)N1` (stereo partly drawn) [Compound 353, N-((1s,3s)-3-(6-((4-(4-(7-(1-(2-(2,6-dioxopiperidin-3-yl)-1,3-dioxoisoindolin-5-yl)piperidin-4-carbonyl)-7-azaspiro[3.5]nonan-2-yl)piperazin-1-yl)phenyl)amino)-9H-purin-9-yl)cyclobutyl)-2-phenylacetamide], for which, at CDK2, the “Enzyme degradation CDK2 (% remaining) @ 0.1 μM” value is 70%, the “Enzyme degradation CDK2 (% remaining) @ 1 μM” value turned out to be 40% and the “Enzyme degradation CDK2 (% remaining) @ 10 μM” value is 40%. In addition, at CDK9, the “Enzyme degradation CDK9 (% remaining) @ 0.1 μM” value is 10/10/10%, the “Enzyme degradation CDK9 (% remaining) @ 1 μM” value is given as 10/10/10% and the “Enzyme degradation CDK9 (% remaining) @ 10 μM” value was 10/10/10%.
As for `O=C1CC[C@H](N2C(=O)c3ccc(N4CCC(C(=O)N5CCC(CCCN6CCN(c7ccc(Nc8ncnc9c8ncn9C8CC(NC(=O)Cc9ccccc9)C8)cc7)CC6)CC5)CC4)cc3C2=O)C(=O)N1` (stereo partly drawn) [Compound 354, N-((1s,3s)-3-(6-((4-(4-(3-(1-(1-(2-(2,6-dioxopiperidin-3-yl)-1,3-dioxoisoindolin-5-yl)piperidin-4-carbonyl)piperidin-4-yl)propyl)piperazin-1-yl)phenyl)amino)-9H-purin-9-yl)cyclobutyl)-2-phenylacetamide], at CDK2, the “Enzyme degradation CDK2 (% remaining) @ 0.1 μM” value amounted to 50%, the “Enzyme degradation CDK2 (% remaining) @ 1 μM” value was 50% and the “Enzyme degradation CDK2 (% remaining) @ 10 μM” value came out at 60%. Also, at CDK9, the “Enzyme degradation CDK9 (% remaining) @ 0.1 μM” value is listed as 10/10/10%, the “Enzyme degradation CDK9 (% remaining) @ 1 μM” value is reported as 10/10/10% and the “Enzyme degradation CDK9 (% remaining) @ 10 μM” value is 10/10/10%.
As for `Cc1cccc(C(=O)NC2CC(n3cnc4c(NCCC5CCN(CC6CCN(C(=O)C7CCN(c8ccc9c(c8)C(=O)N([C@H]8CCC(=O)NC8=O)C9=O)CC7)CC6)CC5)ncnc43)C2)n1` (stereo partly drawn) [Compound 355, N-((1s,3s)-3-(6-((2-(1-((1-(1-(2-(2,6-dioxopiperidin-3-yl)-1,3-dioxoisoindolin-5-yl)piperidin-4-carbonyl)piperidin-4-yl)methyl)piperidin-4-yl)ethyl)amino)-9H-purin-9-yl)cyclobutyl)-6-methylpicolinamide], at CDK2, the “Enzyme degradation CDK2 (% remaining) @ 0.1 μM” value is on record as 70%, the “Enzyme degradation CDK2 (% remaining) @ 1 μM” value is given as 60% and the “Enzyme degradation CDK2 (% remaining) @ 10 μM” value turned out to be 60%. Further, at CDK9, the “Enzyme degradation CDK9 (% remaining) @ 0.1 μM” value came to 10%, the “Enzyme degradation CDK9 (% remaining) @ 1 μM” value is recorded as 0% and the “Enzyme degradation CDK9 (% remaining) @ 10 μM” value is given as 0%.
For the molecule `O=C1CC[C@H](n2nnc3ccc(N4CCN(C5CCN(c6ccc(Nc7ncnc8c7ncn8C7CC(NC(=O)Cc8ccccc8)C7)cc6)CC5)CC4)cc3c2=O)C(=O)N1` (stereo partly drawn) [Compound 357, N-((1s,3s)-3-(6-((4-(4-(4-(3-(2,6-dioxopiperidin-3-yl)-4-oxo-3,4-dihydrobenzo[d][1,2,3]triazin-6-yl)piperazin-1-yl)piperidin-1-yl)phenyl)amino)-9H-purin-9-yl)cyclobutyl)-2-phenylacetamide], on CDK2, the “Enzyme degradation CDK2 (% remaining) @ 0.1 μM” value amounted to 70%, the “Enzyme degradation CDK2 (% remaining) @ 1 μM” value came to 20% and the “Enzyme degradation CDK2 (% remaining) @ 10 μM” value is 20%. Further, at CDK9, the “Enzyme degradation CDK9 (% remaining) @ 0.1 μM” value is 80%, the “Enzyme degradation CDK9 (% remaining) @ 1 μM” value is given as 30% and the “Enzyme degradation CDK9 (% remaining) @ 10 μM” value turned out to be 30%.
Consider `O=C1CC[C@H](N2C(=O)c3ccc(N4CCC(C(=O)N5CCN(C6CC7(CCN(c8ccc(Nc9ncnc%10c9ncn%10[C@H]9C[C@@H](NC(=O)Cc%10ccccc%10)C9)cc8)CC7)C6)CC5)CC4)cc3C2=O)C(=O)N1` [Compound 361, N-((1s,3s)-3-(6-((4-(2-(4-(1-(2-(2,6-dioxopiperidin-3-yl)-1,3-dioxoisoindolin-5-yl)piperidin-4-carbonyl)piperazin-1-yl)-7-azaspiro[3.5]nonan-7-yl)phenyl)amino)-9H-purin-9-yl)cyclobutyl)-2-phenylacetamide], for which, on CDK2, the “Enzyme degradation CDK2 (% remaining) @ 0.1 μM” value is given as 20%, the “Enzyme degradation CDK2 (% remaining) @ 1 μM” value worked out at 10% and the “Enzyme degradation CDK2 (% remaining) @ 10 μM” value worked out at 10%. Further, on CDK9, the “Enzyme degradation CDK9 (% remaining) @ 0.1 μM” value turned out to be 50%, the “Enzyme degradation CDK9 (% remaining) @ 1 μM” value came out at 10% and the “Enzyme degradation CDK9 (% remaining) @ 10 μM” value was determined as 10%.
As to `O=C1CC[C@H](N2C(=O)c3ccc(N4CC(C(=O)N5CCN(CCC6CCN(c7ccc(Nc8ncnc9c8ncn9[C@H]8C[C@@H](NC(=O)Cc9ccccc9)C8)cc7)CC6)CC5)C4)cc3C2=O)C(=O)N1` [Compound 362, N-((1s,3s)-3-(6-((4-(4-(2-(4-(1-(2-(2,6-dioxopiperidin-3-yl)-1,3-dioxoisoindolin-5-yl)azetidin-3-carbonyl)piperazin-1-yl)ethyl)piperidin-1-yl)phenyl)amino)-9H-purin-9-yl)cyclobutyl)-2-phenylacetamide], on CDK2, the “Enzyme degradation CDK2 (% remaining) @ 0.1 μM” value is recorded as 90%, the “Enzyme degradation CDK2 (% remaining) @ 1 μM” value amounted to 80% and the “Enzyme degradation CDK2 (% remaining) @ 10 μM” value stood at 70%. At CDK9, the “Enzyme degradation CDK9 (% remaining) @ 0.1 μM” value is listed as 40%, the “Enzyme degradation CDK9 (% remaining) @ 1 μM” value amounted to 0% and the “Enzyme degradation CDK9 (% remaining) @ 10 μM” value was 0%.
With `O=C1CC[C@H](N2C(=O)c3ccc(N4CCC(C(=O)N5CCN(CCC6CCN(c7ccc(Nc8ncnc9c8ncn9[C@H]8C[C@@H](NC(=O)Cc9ccccc9)C8)cc7)CC6)CC5)CC4)cc3C2=O)C(=O)N1` [Compound 363, N-((1s,3s)-3-(6-((4-(4-(2-(4-(1-(2-(2,6-dioxopiperidin-3-yl)-1,3-dioxoisoindolin-5-yl)piperidin-4-carbonyl)piperazin-1-yl)ethyl)piperidin-1-yl)phenyl)amino)-9H-purin-9-yl)cyclobutyl)-2-phenylacetamide], on CDK2, the “Enzyme degradation CDK2 (% remaining) @ 0.1 μM” value turned out to be 100%, the “Enzyme degradation CDK2 (% remaining) @ 1 μM” value was found to be 50% and the “Enzyme degradation CDK2 (% remaining) @ 10 μM” value is listed as 30%. In addition, at CDK9, the “Enzyme degradation CDK9 (% remaining) @ 0.1 μM” value is 40%, the “Enzyme degradation CDK9 (% remaining) @ 1 μM” value is given as 0% and the “Enzyme degradation CDK9 (% remaining) @ 10 μM” value came out at 0%.
In the case of `O=C1CC[C@H](N2C(=O)c3ccc(N4CC(C(=O)N5CCN(C6CCN(c7ccc(Nc8ncnc9c8ncn9C8CC(NC(=O)Cc9ccccc9)C8)cc7)CC6)CC5)C4)cc3C2=O)C(=O)N1` (stereo partly drawn) [Compound 364, N-((1s,3s)-3-(6-((4-(4-(4-(1-(2-(2,6-dioxopiperidin-3-yl)-1,3-dioxoisoindolin-5-yl)azetidin-3-carbonyl)piperazin-1-yl)piperidin-1-yl)phenyl)amino)-9H-purin-9-yl)cyclobutyl)-2-phenylacetamide], on CDK2, the “Enzyme degradation CDK2 (% remaining) @ 0.1 μM” value is reported as 100%, the “Enzyme degradation CDK2 (% remaining) @ 1 μM” value is 50% and the “Enzyme degradation CDK2 (% remaining) @ 10 μM” value is given as 50%. Moreover, at CDK9, the “Enzyme degradation CDK9 (% remaining) @ 0.1 μM” value came out at 70%, the “Enzyme degradation CDK9 (% remaining) @ 1 μM” value is recorded as 10% and the “Enzyme degradation CDK9 (% remaining) @ 10 μM” value is 10%.
